Reference: patent US20080221134A1, “8-ALKYNYLXANTHINES AND DERIVATIVES” (priority 2006, published 2008)

Experiments:
Rat A1 AR = molecular target: T1, Rat A1 AR (Rattus norvegicus, UniProt P25099); assay: Radioligand binding assay 1, rat A1 adenosine receptor; settings: rat cortex, [3H]CCPA
T1 construct: Rat brain preparations were used for A1- and A2A adenosine receptor (AR); from tissue; host or cells: rat cortex
T1 sequence (P25099 1-326): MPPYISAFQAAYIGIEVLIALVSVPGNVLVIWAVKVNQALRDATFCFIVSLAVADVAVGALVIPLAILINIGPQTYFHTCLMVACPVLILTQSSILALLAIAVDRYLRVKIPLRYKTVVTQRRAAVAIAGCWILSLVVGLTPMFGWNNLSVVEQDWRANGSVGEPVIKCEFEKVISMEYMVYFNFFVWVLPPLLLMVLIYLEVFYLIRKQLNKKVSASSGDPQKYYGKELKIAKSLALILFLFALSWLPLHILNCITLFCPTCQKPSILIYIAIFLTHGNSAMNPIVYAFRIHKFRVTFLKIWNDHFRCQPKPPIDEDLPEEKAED
Procedure: (§1) Rat brain preparations were used for A1- and A2A adenosine receptor (AR) and human recombinant cell samples for A1-, A2A- and A3 adenosine receptor radioligand binding studies. Affinity and selectivity was tested in displacement experiments with following radioligands: [^3H]CCPA for A1-adenosine receptors, [^3H]MSX-2 for A2A-receptors and [^3H]PSB-11 for A3-receptors. Results of these experiments are depicted in table 2b (human data) and table 2a (rat data). Radioligand binding test systems are e.g. generally described by Muller et al., Curr. Pharm. Des., 1996, 2, 501 and Weyler et al., ChemMedChem 2006, 1, 891 and references cited therein) These documents are incorporated herein by reference.

Rat A2A AR = molecular target: T2, Rat A2A AR (Rattus norvegicus, UniProt P30543); assay: Radioligand binding assay 1, rat A2A adenosine receptor; settings: rat striatum, [3H]MSX-2
T2 construct: A2A adenosine receptors from rat striatum; from tissue; host or cells: rat striatum
Procedure: as §1

T2 sequence (P30543 whole entry): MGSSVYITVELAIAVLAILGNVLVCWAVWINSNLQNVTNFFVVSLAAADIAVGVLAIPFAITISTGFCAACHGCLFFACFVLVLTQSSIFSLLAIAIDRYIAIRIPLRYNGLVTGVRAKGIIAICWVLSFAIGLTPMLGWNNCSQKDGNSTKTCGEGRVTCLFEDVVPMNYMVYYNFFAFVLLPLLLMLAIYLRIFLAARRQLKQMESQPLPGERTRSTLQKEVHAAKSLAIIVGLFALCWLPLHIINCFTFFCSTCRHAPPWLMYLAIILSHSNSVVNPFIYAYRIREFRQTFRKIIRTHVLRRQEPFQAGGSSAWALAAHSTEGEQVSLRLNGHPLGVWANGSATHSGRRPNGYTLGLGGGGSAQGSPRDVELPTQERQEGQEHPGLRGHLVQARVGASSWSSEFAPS

Row | SMILES | Ki (Rat A1 AR) [nM] | Ki (Rat A2A AR) [nM]
1 | C#CCn1c(=O)c2c(nc(C#Cc3cccc(C)c3)n2C)n(C)c1=O [drawing 460] | > 10000 | 43.4 ± 11.6
2 | C#CCn1c(=O)c2c(nc(C#Cc3cccc(OC)c3)n2C)n(CCN(C)C)c1=O [drawing 536] | > 1000 | 161 ± 35
3 | C#CCn1c(=O)c2c(nc(C#Cc3ccc(OC)c(OC)c3)n2C)n(Cc2cccs2)c1=O [drawing 520] | > 1000 | 103 ± 21
4 | C#CCn1c(=O)c2c(nc(C#Cc3ccc(OC)c(OC)c3)n2C)n(CC=C)c1=O | > 1000 | 9.5 ± 1.6
5 | C#CCn1c(=O)c2c(nc(C#Cc3ccc(OC)c(OC)c3)n2C)n(CC2CC2)c1=O [drawing 521] | > 1000 | 10.2 ± 4.2
6 | C#CCn1c(=O)c2c(nc(C#Cc3cccc(OC)c3)n2C)n(CC=C)c1=O [drawing 490] | > 1000 | 41.8 ± 4.3
7 | C#CCn1c(=O)c2c(nc(C#Cc3cccc(OC)c3)n2C)n(CC2CO2)c1=O (stereo not shown) | > 1000 | 38.2 ± 12
8 | C#CCn1c(=O)c2c(nc(C#Cc3cccc(OCCN(C)C)c3)n2C)n(C)c1=O [drawing 473] | 194 ± 33 | 49 ± 5
9 | C#CCn1c(=O)c2c(nc(C#Cc3ccc(OC)c(OC)c3)n2C)n(CCCC#N)c1=O [drawing 508] | > 1000 | 22.9 ± 7.6
10 | C#CCn1c(=O)c2c(nc(C#Cc3ccc(OC)c(F)c3)n2C)n(CC)c1=O | ≥ 1000 | 52.6 ± 19.5
11 | C#CCn1c(=O)c2c(nc(C#Cc3ccc4c(c3)OCO4)n2C)n(C)c1=O [drawing 476] | > 10000 | 166 ± 34
12 | C#CCn1c(=O)c2c(nc(C#Cc3ccoc3)n2C)n(CC)c1=O | > 1000 | 220 ± 21
13 | C#CCn1c(=O)c2c(nc(C#Cc3ccc(OCC)c(OCC)c3)n2C)n(C)c1=O | > 1000 | 951 ± 224
14 | C#CCn1c(=O)c2c(nc(C#Cc3cccc(OC)c3)n2C)n(CCBr)c1=O | > 1000 | 90 ± 25
15 | C#CCn1c(=O)c2c(nc(C#Cc3ccc(C)cc3)n2C)n(C)c1=O | > 10000 | 151 ± 8.4
16 | C#CCn1c(=O)c2c(nc(C#Cc3ccc(OC)c(OC)c3)n2CC#C)n(CC)c1=O | > 1000 | 132 ± 60
17 | C#CCn1c(=O)c2c(nc(C#Cc3cccc(OCCCO)c3)n2C)n(C)c1=O [drawing 468] | ≥ 10000 | 211 ± 46
18 | C#CCn1c(=O)c2c(nc(C#Cc3ccc(OC)cc3)n2C)n(CC)c1=O | > 1000 | 28.6 ± 13.3
19 | C#CCn1c(=O)c2c(nc(C#Cc3ccccc3OC)n2C)n(C)c1=O | > 10000 | > 10000
20 | C#CCn1c(=O)c2c(nc(C#Cc3ccc(OC)c(OC)c3)n2C)n(CCCCF)c1=O | 209 ± 42 | 11.7 ± 1.7
21 | C#CCn1c(=O)c2c(nc(C#Cc3cc(OC)cc(OC)c3)n2C)n(C)c1=O | > 10000 | 190 ± 50
22 | C#CCn1c(=O)c2c(nc(C#Cc3ccc(OC)c(OC)c3)n2C)n(CC(C)O)c1=O (stereo not shown) [drawing 502] | 189 ± 33 | 13.3 ± 1.4

Row | SMILES | Ki (Rat A1 AR) [nM] | Ki (Rat A2A AR) [nM]
23 | C#CCn1c(=O)c2c(nc(C#Cc3ccc(OC)c(OC)c3)n2C)n(C)c1=O [drawing 458] | > 10000 | 32.7 ± 6.1
24 | C#CCn1c(=O)c2c(nc(C#Cc3ccc(OC)c(OC)c3)n2C)n(CC(=O)CC)c1=O | > 1000 | 91.7 ± 38.3
25 | C#CCn1c(=O)c2c(nc(C#Cc3cccc(OC)c3)n2CC#C)n(C)c1=O [drawing 467] | ≥ 10000 | 90 ± 35.7
26 | C#CCn1c(=O)c2c(nc(C#Cc3cncn3C)n2C)n(CC)c1=O [drawing 511] | 460 ± 61 | 119 ± 26
27 | C#CCn1c(=O)[nH]c2nc(C#Cc3cccc(OC)c3)n(C)c2c1=O | > 1000 | 135 ± 28
28 | C#CCn1c(=O)c2c(nc(C#Cc3ccc(F)c(OC)c3)n2C)n(CC)c1=O [drawing 519] | > 1000 | 43.1 ± 13.2
29 | C#CCn1c(=O)c2c(nc(C#Cc3cccc(O)c3)n2C)n(C)c1=O [drawing 475] | 425 ± 99 | 173 ± 35
30 | C#CCn1c(=O)c2c(nc(C#Cc3ccc(F)c(OC)c3)n2C)n(C)c1=O | > 1000 | 70.3 ± 5.39
31 | C#CCn1c(=O)c2c(nc(C#Cc3cccc(OC)c3)n2CC#N)n(C)c1=O | > 1000 | 56.2 ± 12.9
32 | C#CCn1c(=O)c2c(nc(C#Cc3ccc(OC)c(OC)c3)n2C)n(CC)c1=O [drawing 487] | > 3000 | 47.2 ± 7.3
33 | C#CCn1c(=O)c2c(nc(C#Cc3cccc(OCCCN(C)C)c3)n2C)n(C)c1=O [drawing 470] | 186 ± 3 | 40 ± 1
34 | C#CCn1c(=O)c2c(nc(C#Cc3cccc(OCCO)c3)n2C)n(C)c1=O [drawing 469] | ≥ 10000 | 117 ± 25
35 | C#CCn1c(=O)c2c(nc(C#Cc3ccc(OCC)c(OCC)c3)n2C)n(CC)c1=O [drawing 497] | > 1000 | 166 ± 50
36 | C#CCn1c(=O)c2c(nc(C#Cc3cccc(Br)c3)n2C)n(C)c1=O [drawing 462] | ≥ 10000 | 151 ± 19
37 | C#CCn1c(=O)c2c(nc(C#Cc3ccc(OC)c(OC)c3)n2C)n(CC(C)C)c1=O [drawing 517] | ≥ 1000 | 5.54 ± 1.3
38 | C#CCn1c(=O)c2c(nc(C#Cc3ccc(OC)c(OC)c3)n2C)n(CCC=C)c1=O | 176 ± 59 | 34.9 ± 6.9
39 | C#CCn1c(=O)c2c(nc(C#Cc3ccc(OC)c(OC)c3)n2C)n(CCC#N)c1=O [drawing 501] | > 1000 | 76.4 ± 32.9
40 | C#CCn1c(=O)c2c(nc(C#Cc3ccc(OC)c(OC)c3)n2C)n(CCCOP(=O)(O)O)c1=O [drawing 494] | 136 ± 19 | 37 ± 11
41 | CCn1c(=O)n(Cc2ccco2)c(=O)c2c1nc(C#Cc1ccc(OC)c(OC)c1)n2C | 208 ± 54 | 90.9 ± 7
42 | C#CCn1c(=O)c2c(nc(C#Cc3cccc(Cl)c3)n2C)n(CC)c1=O | 488 ± 253 | 141 ± 28
43 | C#CCn1c(=O)c2c(nc(C#Cc3cccc(OC)c3)n2C)n(CC(O)CO)c1=O (stereo not shown) [drawing 492] | > 1000 | 69.8 ± 17.1
44 | C#CCn1c(=O)c2c(nc(C#Cc3ccc(OC)c(OC)c3)n2C)n(CCCOC)c1=O [drawing 506] | > 1000 | 44 ± 6.2

Row | SMILES | Ki (Rat A1 AR) [nM] | Ki (Rat A2A AR) [nM]
45 | C#CCn1c(=O)c2c(nc(C#Cc3cccc(OC)c3)n2C)n(CC)c1=O [drawing 485] | > 10000 | 49.9 ± 9.7
46 | C#CCn1c(=O)c2c(nc(C#Cc3cccc(C)c3)n2C)n(CCCO)c1=O [drawing 534] | 467 ± 6 | 47 ± 2
47 | C#CCn1c(=O)c2c(nc(C#Cc3cccc(F)c3)n2C)n(C)c1=O | > 10000 | 466 ± 36
48 | CCn1c(=O)n(Cc2ccoc2)c(=O)c2c1nc(C#Cc1ccc(OC)c(OC)c1)n2C | 1250 ± 106 | 90.7 ± 11.2
49 | C#CCn1c(=O)c2c(nc(C#Cc3ccc(OC)c(OC)c3)n2C)n(CCCO)c1=O [drawing 533] | 337 ± 67 | 30.1 ± 5.4
50 | C#CCn1c(=O)c2c(nc(C#Cc3ccc(OC)c(OC)c3)n2C)n(CC(O)CO)c1=O (stereo not shown) [drawing 493] | ≥ 1000 | 42.3 ± 5.7
51 | C#CCn1c(=O)[nH]c2nc(C#Cc3ccc(OC)c(OC)c3)n(C)c2c1=O [drawing 483] | ≥ 10000 | 15 ± 2
52 | C#CCn1c(=O)c2c(nc(C#Cc3ccc(OC)c(OC)c3)n2C)n(Cc2ccco2)c1=O [drawing 503] | 76.8 ± 22.9 | 6.74 ± 1
53 | C#CCn1c(=O)c2c(nc(C#Cc3ccc(OC)c(OC)c3)n2C)n(C(C)C(C)=O)c1=O (stereo not shown) [drawing 524] | 157 ± 12 | 16 ± 6
54 | C#CCn1c(=O)c2c(nc(C#Cc3ccc(OC)c(OC)c3)n2C)n(CCC(F)(F)F)c1=O | 234 ± 47 | 24.2 ± 3.8
55 | C#CCn1c(=O)c2c(nc(C#Cc3ccc(OC)c(OC)c3)n2C)n(C[C@H](C)CO)c1=O | 146 ± 46 | 1.83 ± 0.38
56 | C#CCn1c(=O)c2c(nc(C#Cc3ccsc3)n2C)n(CC)c1=O [drawing 510] | > 1000 | 108 ± 31
57 | C#CCn1c(=O)c2c(nc(C#Cc3ccc(OC)c(OC)c3)n2C)n(CCF)c1=O [drawing 518] | ≥ 1000 | 9.99 ± 0.7
58 | C#CCn1c(=O)c2c(nc(C#Cc3ccc(OC)c(OC)c3)n2C)n(CC(C)=O)c1=O [drawing 525] | > 1000 | 18.5 ± 5
59 | C#CCn1c(=O)c2c(nc(C#Cc3ccc(OC)c(OC)c3)n2C)n(CCC)c1=O [drawing 515] | ≥ 1000 | 13.4 ± 6.5
60 | C#CCn1c(=O)c2c(nc(C#Cc3ccc(OC)c(OC)c3)n2C)n(CC(=C)C)c1=O | > 1000 | 28.6 ± 9.7
61 | C#CCn1c(=O)c2c(nc(C#Cc3ccc(OC)c(OC)c3)n2C)n(CC(F)(F)F)c1=O | ≥ 1000 | 12.7 ± 2.8
62 | C#CCn1c(=O)c2c(nc(C#Cc3ccc(OC)c(OC)c3)n2C)n(CCC(=O)CC)c1=O | 111 ± 26 | 103 ± 15
63 | C#CCn1c(=O)c2c(nc(C#Cc3ccc(OC)c(OC)c3)n2C)n(CCN(C)C)c1=O [drawing 489] | 810 ± 145 | 54 ± 5
64 | C#CCn1c(=O)c2c(nc(C#Cc3ccc(OC)c(OC)c3)n2C)n(Cc2cnc[nH]2)c1=O [drawing 527] | > 1000 | 28.8 ± 4.1
65 | C#CCn1c(=O)c2c(nc(C#Cc3ccc(OC)c(OC)c3)n2C)n(CC(O)CO)c1=O (stereo not shown) [drawing 537] | > 1000 | 42.3 ± 5.7
